From PubChem BioAssay (NCI)
Where “and” joins values, the source holds several entries; their conditions need not be identical. Equal values may be shown once.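 Protocol summary: plate cells (96-well), add compound at 5 concentrations, incubate 48 h, interpolate endpoints linearly. GI50 is the concentration that inhibits growth by half. At the TGI there is no net growth.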

What was measured:
Experiment in all cases: NCI tumour cell line growth inhibition, 48 h
RXF-631 renal = test system: RXF-631 renal
LXFL 529 NSCLC = test system: LXFL 529 NSCLC
KM20L2 colon = test system: KM20L2 colon
DMS 114 small cell lung = test system: DMS 114 small cell lung
BT-549 breast = test system: BT-549 breast
PC-3 prostate = test system: PC-3 prostate
MDA-N = test system: MDA-N
T-47D breast = test system: T-47D breast
MCF7 breast = test system: MCF7 breast

For `CCC1C(=O)OCc2c1cc1n(c2=O)Cc2ccccc2-1` (stereo not drawn), the TGI (RXF-631 renal) was > 100 µM, the TGI (LXFL 529 NSCLC) was > 100 µM and the TGI (KM20L2 colon) was > 100 µM. For the same molecule, the TGI (DMS 114 small cell lung) was > 100 µM.

For `O=C(/C=C/c1ccc(OCCCOc2ccc(/C=C/C(=O)c3ccc(Cl)cc3)cc2)cc1)c1ccc(Cl)cc1`, the TGI (LXFL 529 NSCLC) was > 100 µM, the TGI (KM20L2 colon) was > 100 µM and the TGI (DMS 114 small cell lung) was > 100 µM.

With `NC(=O)COc1ccc(Br)cc1Br` the TGI (LXFL 529 NSCLC) was > 100 µM, the TGI (KM20L2 colon) was > 100 µM and the TGI (DMS 114 small cell lung) was > 100 µM.

With `NS(=O)(=O)c1ccc(N=Nc2cc3ccccc3c(C(=O)O)c2O)cc1` the TGI (BT-549 breast) was > 100 µM, the TGI (PC-3 prostate) was > 90.3 µM and the TGI (MDA-N) was > 100 µM. For the same molecule, the TGI (T-47D breast) was > 100 µM and the TGI (MCF7 breast) was > 84.7 µM.

For `C/C(=C\COc1ccc2ccc(=O)oc2c1)CCC(=O)C(C)(C)O`, the TGI (BT-549 breast) was 74.9 µM, the TGI (PC-3 prostate) was > 100 µM and the TGI (MDA-N) was > 100 µM. For the same molecule, the TGI (T-47D breast) was > 100 µM and the TGI (MCF7 breast) was 40.6 µM.

In the case of `COc1ccc(CN[C@H]2CCc3cc(OC)c(OC)c(OC)c3-c3ccc(SC)c(=O)cc32)c(OC)c1OC`, the GI50 (LXFL 529 NSCLC) is reported as < 0.01 µM, the TGI (LXFL 529 NSCLC) is reported as > 100 µM and the GI50 (KM20L2 colon) is reported as < 0.01 µM. The TGI (KM20L2 colon) was 0.0351 µM and 0.0146 µM and the TGI (DMS 114 small cell lung) was 0.0402 µM.

With `C/C(CC(=O)Nc1cc(Cl)c(Cl)cc1Cl)=N\NS(=O)(=O)c1ccc(C)cc1` the TGI (RXF-631 renal) was > 100 µM, the TGI (LXFL 529 NSCLC) was > 100 µM and the TGI (KM20L2 colon) was > 100 µM. The TGI (DMS 114 small cell lung) was 82.9 µM.

In the case of `O=[N+]([O-])C1(CO)COC2(OC1)c1ccccc1-c1ccccc12`, the TGI (RXF-631 renal) is reported as > 100 µM, the TGI (BT-549 breast) is reported as > 88.2 µM and the TGI (PC-3 prostate) is reported as > 100 µM. The TGI (LXFL 529 NSCLC) was > 100 µM, the TGI (MDA-N) was > 100 µM and the TGI (T-47D breast) was 77.2 µM. For the same molecule, the TGI (KM20L2 colon) was > 100 µM, the TGI (DMS 114 small cell lung) was > 100 µM and the TGI (MCF7 breast) was > 95.3 µM.

In the case of `Cc1nc(=O)n2c(c1C(=O)Nc1ccc(Cl)cc1)NCCC2`, the TGI (LXFL 529 NSCLC) is reported as > 100 µM and the TGI (DMS 114 small cell lung) is reported as > 100 µM.

With `CC(C)N(C(=O)C12C3C4C5C3C1(C(=O)N(C(C)C)C(C)C)C5C42)C(C)C` (stereo not drawn) the TGI (LXFL 529 NSCLC) was > 100 µM, the TGI (KM20L2 colon) was > 100 µM and the TGI (DMS 114 small cell lung) was > 63.2 µM.

`O=C(O)CNCc1c2ccccc2nc2ccccc12` was tested, and the TGI (BT-549 breast) was > 100 µM, the TGI (PC-3 prostate) was > 100 µM and the TGI (LXFL 529 NSCLC) was > 71 µM. The TGI (MDA-N) was > 100 µM, the TGI (T-47D breast) was > 100 µM and the TGI (KM20L2 colon) was 91.1 µM. For the same molecule, the TGI (DMS 114 small cell lung) was 72.7 µM and the TGI (MCF7 breast) was > 100 µM.

Molecule `CC(C(=O)C(C)O[Si](c1ccccc1)(c1ccccc1)C(C)(C)C)=P(c1ccccc1)(c1ccccc1)c1ccccc1` (stereo not drawn) has a TGI (LXFL 529 NSCLC) of 11.7 µM, a TGI (KM20L2 colon) of 8.66 µM and a TGI (DMS 114 small cell lung) of 6.25 µM.

In the case of `COc1cccc(C2N3CCCCC3[C@@H]3c4[nH]c5ccccc5c4CCN23)c1OC` (stereo partly drawn), the TGI (RXF-631 renal) is reported as 32.4 µM, the TGI (LXFL 529 NSCLC) is reported as 28.5 µM and the TGI (KM20L2 colon) is reported as 27.4 µM. The TGI (DMS 114 small cell lung) was 29.2 µM.

With `COC(=O)C([O][Ge]([CH3])([CH3])[CH3])c1ccccc1` (stereo not drawn) the GI50 (RXF-631 renal) was > 100 µM, the TGI (RXF-631 renal) was > 100 µM and the GI50 (LXFL 529 NSCLC) was > 100 µM. The TGI (LXFL 529 NSCLC) was > 100 µM, the GI50 (KM20L2 colon) was > 100 µM and the TGI (KM20L2 colon) was > 100 µM. The GI50 (DMS 114 small cell lung) was > 100 µM and the TGI (DMS 114 small cell lung) was > 100 µM.

With `CC(=O)OC1CC2C(C)(C)C(=O)C=C[C@]2(C)C2CCC3(C)C(=CCC3[C@H](CO)C[C@H](O)C(=O)C(C)(C)O)[C@]12C` (stereo partly drawn) the TGI (RXF-631 renal) was > 100 µM, the TGI (LXFL 529 NSCLC) was > 100 µM and the TGI (KM20L2 colon) was 28 µM. The TGI (DMS 114 small cell lung) was > 100 µM.

With `O=C1/C(=C/c2ccc(Cl)cc2)COc2ccc(Br)cc21` the TGI (RXF-631 renal) was > 100 µM, the TGI (LXFL 529 NSCLC) was > 100 µM and the TGI (KM20L2 colon) was > 100 µM. The TGI (DMS 114 small cell lung) was > 100 µM.

With `C=C(C)[C@@H]1CC[C@@H]2C(=CC[C@]3(C)C([C@H](C)CC/C=C(/C)C(=O)O)CC[C@@]23C)[C@@]1(C)CCC(=O)O` (stereo partly drawn) the TGI (BT-549 breast) was 51 µM, the TGI (PC-3 prostate) was 65.9 µM and the TGI (MDA-N) was 72.2 µM. The TGI (T-47D breast) was > 100 µM and the TGI (MCF7 breast) was > 100 µM.

Work on `c1cc[c]([Sn]([O]c2cccc3cccnc23)([c]2ccccc2)[c]2ccccc2)cc1` yielded a GI50 (LXFL 529 NSCLC) of 0.0156 µM, a TGI (LXFL 529 NSCLC) of 0.0328 µM and a GI50 (KM20L2 colon) of 0.0215 µM. The TGI (KM20L2 colon) was 0.0448 µM.

For `COc1ccccc1NC(=O)NS(=O)(=O)c1ccccc1`, the TGI (LXFL 529 NSCLC) was > 100 µM, the TGI (KM20L2 colon) was > 100 µM and the TGI (DMS 114 small cell lung) was > 100 µM.

In the case of `COc1cc2ccc(C(=O)O)cc2cc1OC`, the TGI (LXFL 529 NSCLC) is reported as > 100 µM and the TGI (KM20L2 colon) is reported as > 100 µM.

`CC(C)=CCCC1(C)C=Cc2c(ccc3c2[nH]c2cc(O)c(C)cc23)O1` (stereo not drawn) was tested, and the GI50 (LXFL 529 NSCLC) was 5.15 µM, the TGI (LXFL 529 NSCLC) was 10.9 µM and the GI50 (KM20L2 colon) was 5.22 µM. It also gave a TGI (KM20L2 colon) of 10.4 µM and a TGI (DMS 114 small cell lung) of 19.8 µM.

With `O=C1/C(=C/c2ccccc2)CN(C(=O)Oc2ccccc2)C/C1=C\c1ccccc1` the TGI (LXFL 529 NSCLC) was > 100 µM, the TGI (KM20L2 colon) was > 100 µM and the TGI (DMS 114 small cell lung) was > 100 µM.

`CCc1cc2c(c3[nH]ccc13)[C@@H](C)C[C@H]2C` showed a TGI (LXFL 529 NSCLC) of 32.8 µM and a TGI (DMS 114 small cell lung) of 43.4 µM.
